Test results taken from US20250059509A1, “METHOD FOR PRODUCING MACROPHAGES, DIFFERENTIATION INDUCING AGENT, DIFFERENTIATION INDUCTION KIT, METHOD FOR CULTURING MACROPHAGES, AGENT FOR PROMOTING MACROPHAGE PROPAGATION, KIT FOR PROMOTING MACROPHAGE PROLIFERATION, METHOD FOR MACROPHAGE PROLIFERATION, AND MACROPHAGES” (Kagoshima University, priority 2021, published 2025).

B1: macrophage colony-stimulating factor (protein, UniProt P07141 33-552, looked up)
Macrophage colony-stimulating …: KEVSEHCSHMIGNGHLKVLQQLIDSQMETSCQIAFEFVDQEQLDDPVCYLKKAFFLVQDIIDETMRFKDNTPNANATERLQELSNNLNSCFTKDYEEQNKACVRTFHETPLQLLEKIKNFFNETKNLLEKDWNIFTKNCNNSFAKCSSRDVVTKPDCNCLYPKATPSSDPASASPHQPPAPSMAPLAGLAWDDSQRTEGSSLLPSELPLRIEDPGSAKQRPPRSTCQTLESTEQPNHGDRLTEDSQPHPSAGGPVPGVEDILESSLGTNWVLEEASGEASEGFLTQEAKFSPSTPVGGSIQAETDRPRALSASPFPKSTEDQKPVDITDRPLTEVNPMRPIGQTQNNTPEKTDGTSTLREDHQEPGSPHIATPNPQRVSNSATPVAQLLLPKSHSWGIVLPLGELEGKRSTRDRRSPAELEGGSASEGAARPVARFNSIPLTDTGHVEQHEGSSDPQIPESVFHLLVPGIILVLLTVGGLLFYKWKWRSHRDPQTLDSSVGRPEDSSLTQDEDRQVELPV

Columns and labels:
mouse bone marrow cells = test: Induction of differentiation of mouse bone marrow cells with each test substance, viable cells by WST-8 assay; type: cell-based; details: plate coated with 1 μg test substance per well; WST-8 on Days 5, 10, 14 and 20; FIG. 10
Experimental: To fresh 10% FBS/RPMI medium, 1/10 volume of WST-8 (07553-15 Cell Count Reagent SF, manufactured by Nacalai Tesque Inc.) was added to prepare a medium for counting the number of viable cells. The old medium in the culture plate was removed by aspiration, and the medium for counting the number of viable cells was dispensed at 100 μl/well. The cells were cultured at 37° C. in a 5% CO2 incubator for 1 hour. The absorbance at 450 nm was measured using a microplate reader.
A 96-well cell culture plate was coated with each test substance in the same manner as described above, and mouse bone marrow cells were plated in the plate at 4×10^4 cells/100 μl/well.

TREM2 = test: Ligand activity using TREM2 reporter cells (GFP-positive cells by flow cytometry); details: plate coated with 1 μg test substance per well; reporter cells cultured 16 hours; FIG. 9
Experimental: Using a retroviral vector, TREM2 and DAP12 cDNAs were introduced into 2B4-NFAT-GFP reporter cells (obtained from RIKEN), to prepare reporter cells in which binding of a ligand to TREM2 expressed on the cell surface induces expression of GFP (Iizasa and others, Nature Communications, 2021, vol. 12 (1), p. 2299-16).
As a test substance, β-GluCer, α-GalCer, palmitic acid, stearic acid, cholesterol, PC, LPC, PE, Sulf, or MA was diluted with methanol to 50 μg/ml. The test substance was aliquoted in 20-μl (1-μg) portions into a 96-well cell culture plate, and then the plate was left to stand in a clean bench, to evaporate the methanol.
In the culture plate coated with the test substance, the reporter cells were plated at 5×10^4 cells/100 μl/well. The cells were cultured in a CO2 incubator for 16 hours. The culture was suspended well, and transferred to a V-bottom 96-well plate. The sample was centrifuged at 500 G at 4° C. for 5 minutes, and then the supernatant was discarded. The sample was suspended by adding 50 μl/well of 10 μg/ml PI/1% FBS/HBSS. GFP-positive cells in the sample were analyzed by flow cytometry.

LIMs and BMDMs = test: Cryopreservation test of LIMs and BMDMs; type: cell-based, mouse; details: −80° C. for thirty days; 25 ng/ml M-CSF; viable cells Day 6 or Day 14; FIG. 6
Experimental: LIMs and BMDMs at 80 to 90% confluence were detached from culture plates, and separately centrifuged at 500 G for 5 minutes, followed by discarding the supernatant. In a CELLBANKER 1 (manufactured by Nippon Zenyaku Kogyo Co., Ltd.), the cells were suspended at 5×10^5 to 5×10^6 cells per 1 ml, and the resulting suspension was transferred to a CryoTube, and stored at −80° C. Thirty days later, the cells were thawed, and plated in a 24-well plate without stimulation (None), with addition of 25 ng/ml M-CSF (M-CSF), or with brain lipid coating (BL). The number of viable cells on Day 6 or Day 14 after the plating was counted using a hemocytometer.

Molecule | differentiation of bone marrow cells into LIMs (mouse bone marrow cells) | ligand activity for TREM2 (TREM2) | proliferation of BMDMs thawed after cryopreservation (LIMs and BMDMs)
CCCCCCCCCCCCCCCCCCCCCCCCCC(=O)N[C@@H](CO[C@H]1O[C@H](CO)[C@H](O)[C@H](O)[C@H]1O)[C@H](O)[C@H](O)CCCCCCCCCCCCCC [α-GalCer, α-galactosylceramide] | induced differentiation of the bone marrow cells into LIMs | have ligand activity for TREM2 | –
lysophosphatidylcholine [LPC] | induced differentiation of the bone marrow cells into LIMs | have ligand activity for TREM2 | –
mycolic acid [MA] | induced differentiation of the bone marrow cells into LIMs | have ligand activity for TREM2 | –
phosphatidylcholine [PC] | induced differentiation of the bone marrow cells into LIMs | have ligand activity for TREM2 | –
phosphatidylethanolamine [PE] | induced differentiation of the bone marrow cells into LIMs | have ligand activity for TREM2 | –
sulfatide | induced differentiation of the bone marrow cells into LIMs | have ligand activity for TREM2 | –
β-glucosylceramide [β-GluCer] | induced differentiation of the bone marrow cells into LIMs | have ligand activity for TREM2 | –
B1 | – | – | did not proliferate
